Experimental findings from patent US12264159B2, “Functionalized heterocycles as antiviral agents” (Enanta Pharmaceuticals, Inc., priority 2018, dated 2025) are described below.

The structures appear in SMILES notation. A value given as a limit tells only on which side of the number the result lay.

Series [1] concerns HBV in 2.2.15 cells. The series is described as follows: 2.2.15 cells: viral product in cell lysates quantified via quantitative real time PCR. It is filed as cell-based, hepatitis B virus (HBV). The conditions noted are these: Hepatitis B virus, 120 h, day 5 post treatment, 50% reduction of viral product vs no drug controls, readout (qPCR, HBsAg or HBeAg) not specified for the column. As to the method:
2.2.15 cells are passaged upon attaining confluency in DMEM/F12 media in the presence of 10% FBS, Penn/Strep, and 250 ug/mL G418. Novel compounds are 5 fold serially diluted in DMSO and added to 96 well plates containing 35,000 cells/well at a 1:200 dilution so that the final concentration of DMSO is 0.5%. On day 5, post treatment cell lysates and supernatants are harvested for analysis.
Cells are lysed using Agilent Sidestep Lysis buffer, diluted 1:100 and quantified via quantitative real time PCR. Commercially available ELISA kits are used to quantitate the viral proteins HBsAg (Alpco) or HBeAg (US Biological) by following the manufacturer's recommended protocol after diluting samples to match the linear range of their respective assays. Irrespective of readout, compound concentrations that reduce viral product accumulation in the cell lysates or supernatants by 50% relative to no drug controls (EC50) are reported; EC50 ranges are as follows: A<0.1 μM; B 0.2-1 μM; C>1 μM.

The nature of series [2]: Compound induced cellular toxicity in HepG2 cells, ATPlite 1Step. The conditions noted are these: human, three days exposure, 50% reduction of total ATP vs no drug controls. It is filed as cell-based. The method, then:
At day 3, post seeding cells are treated with ATPlite 1Step according to the manufacturer's instructions.
For orientation: ATP-based viability assays read luminescence as a measure of living cells.

Usually EC50 stands for the concentration giving half of the maximal effect. Low values mean an effect from little substance, high ones a need for much substance. For orientation: CC50 means the concentration at which the toxic effect on the cells reaches its halfway point. A higher CC50 goes with lower toxicity to the cells. In the case of `CC(C)(C)[C@@H]1Cn2nc(-c3cnco3)cc2-c2cc(=O)c(C(=O)O)cn21` [Example 7, (R)-6-(tert-butyl)-2-(oxazol-5-yl)-10-oxo-5,6-dihydro-10H-pyrazolo[1,5-a]pyrido[2,2-c]pyrazine-12-carboxylic acid], the EC50 in series [1] lay within 200 to 1000 nM. In addition, in series [2], the CC50 at 3 days was > 25000 nM.

`CCOc1ccc(OC)cc1-c1cc2n(n1)C[C@@H](C(C)(C)C)n1cc(C(=O)O)c(=O)cc1-2` [Example 37, (R)-6-(tert-butyl)-2-(2-ethoxy-5-methoxyphenyl)-10-oxo-5,6-dihydro-10H-pyrazolo[1,5-a]pyrido[2,2-c]pyrazine-12-carboxylic acid]: the EC50 in series [1] was < 100 nM. In addition, the CC50 at 3 days in series [2] was > 25000 nM.

Regarding `COc1cccc(-c2nn3c(c2-c2cccc(OC)c2)-c2cc(=O)c(C(=O)O)cn2[C@H](C(C)(C)C)C3)c1` [Example 97, (R)-6-(tert-butyl)-1,2-bis(3-methoxyphenyl)-10-oxo-5,6-dihydro-10H-pyrazolo[1,5-a]pyrido[2,1-c]pyrazine-9-carboxylic acid], in series [1], the EC50 was < 100 nM. Also, the CC50 at 3 days in series [2] is > 25000 nM.

For `CC(C)(C)[C@@H]1Cn2nc(C3CC3)c(-c3ccccc3)c2-c2cc(=O)c(-c3ncn[nH]3)cn21` [Example 195, (R)-6-(tert-butyl)-2-cyclopropyl-1-phenyl-9-(1H-1,2,4-triazol-5-yl)-5,6-dihydro-10H-pyrazolo[1,5-a]pyrido[2,1-c]pyrazin-10-one], the EC50 in series [1] was < 100 nM. In series [2], the CC50 at 3 days is > 25000 nM.

Turning to `CCOc1cc(F)ccc1-c1cc2n(n1)C[C@@H](C(C)(C)C)n1cc(C(=O)O)c(=O)cc1-2` [Example 72, (R)-6-(tert-butyl)-2-(2-ethoxy-4-fluorophenyl)-10-oxo-5,6-dihydro-10H-pyrazolo[1,5-a]pyrido[2,2-c]pyrazine-12-carboxylic acid], the EC50 in series [1] was < 100 nM. The CC50 at 3 days in series [2] is > 25000 nM.

With `CC(C)(C)[C@@H]1Cn2nc(C3CC3)c(-c3ccc(F)c(F)c3)c2-c2cc(=O)c(C(=O)O)cn21` [Example 151, (R)-6-(tert-butyl)-2-cyclopropyl-1-(3,4-difluorophenyl)-10-oxo-5,6-dihydro-10H-pyrazolo[1,5-a]pyrido[2,1-c]pyrazine-9-carboxylic acid], in series [1], the EC50 is < 100 nM. For the same molecule, the CC50 at 3 days in series [2] was > 25000 nM.

`CC(C)[C@@H]1Cn2nc(-c3ccc(O)cc3)c(-c3ccc(O)cc3)c2-c2c(F)c(=O)c(C(=O)O)cn21` [Example 191, (R)-11-fluoro-1,2-bis(4-hydroxyphenyl)-6-isopropyl-10-oxo-5,6-dihydro-10H-pyrazolo[1,5-a]pyrido[2,1-c]pyrazine-9-carboxylic acid]: the EC50 in series [1] was < 100 nM. For the same molecule, the CC50 at 3 days in series [2] is > 25000 nM.

Regarding `CC(C)(C)[C@@H]1Cn2nc(C3CC3)c(-c3ccccc3F)c2-c2cc(=O)c(C(=O)O)cn21` [Example 148, (R)-6-(tert-butyl)-2-cyclopropyl-1-(2-fluorophenyl)-10-oxo-5,6-dihydro-10H-pyrazolo[1,5-a]pyrido[2,1-c]pyrazine-9-carboxylic acid], the EC50 in series [1] is < 100 nM. In series [2], the CC50 at 3 days is > 25000 nM.

`CC(C)(C)[C@@H]1Cn2nc(-c3ccccc3OC(F)(F)F)cc2-c2cc(=O)c(C(=O)O)cn21` [Example 24, (R)-6-(tert-butyl)-10-oxo-2-(2-(trifluoromethoxy)phenyl)-5,6-dihydro-10H-pyrazolo[1,5-a]pyrido[2,2-c]pyrazine-12-carboxylic acid]: the EC50 in series [1] was < 100 nM. For the same molecule, in series [2], the cytotoxic concentration (CC50) at 3 days is > 25000 nM.

Take `CC(C)[C@@H]1Cn2nc(C3CC3)c(-c3cccnc3)c2-c2cc(=O)c(C(=O)O)cn21` [Example 140, (R)-2-cyclopropyl-6-isopropyl-10-oxo-1-(pyridin-3-yl)-5,6-dihydro-10H-pyrazolo[1,5-a]pyrido[2,1-c]pyrazine-9-carboxylic acid]: in series [1], the EC50 is < 100 nM. Besides, the CC50 at 3 days in series [2] was > 25000 nM.

`CC(C)[C@@H]1Cn2nc(-c3ccccc3)c(-c3ccccc3)c2-c2cc(=O)c(C(=O)O)cn21` [Example 179, (R)-6-isopropyl-10-oxo-1,2-diphenyl-5,6-dihydro-10H-pyrazolo[1,5-a]pyrido[2,1-c]pyrazine-9-carboxylic acid]: the EC50 in series [1] was < 100 nM. Moreover, the CC50 at 3 days in series [2] is > 25000 nM.

The molecule `CC(C)(C)[C@@H]1Cn2nc(-c3ccc(OC(F)(F)F)cc3)cc2-c2cc(=O)c(C(=O)O)cn21` [Example 25, (R)-6-(tert-butyl)-10-oxo-2-(4-(trifluoromethoxy)phenyl)-5,6-dihydro-10H-pyrazolo[1,5-a]pyrido[2,2-c]pyrazine-12-carboxylic acid] had an EC50 in series [1] of 200 to 1000 nM. Moreover, the 50% cytotoxic concentration (CC50) at 3 days in series [2] is > 25000 nM.

For the molecule `Cc1sccc1-c1c(C2CC2)nn2c1-c1cc(=O)c(C(=O)O)cn1[C@H](C(C)(C)C)C2` [Example 160, (R)-6-(tert-butyl)-2-cyclopropyl-1-(2-methylthiophen-3-yl)-10-oxo-5,6-dihydro-10H-pyrazolo[1,5-a]pyrido[2,1-c]pyrazine-9-carboxylic acid], in series [1], the EC50 was < 100 nM. Further, the CC50 at 3 days in series [2] is > 25000 nM.

On to `COc1ccc(O)c(-c2cc3n(n2)C[C@@H](C(C)(C)C)n2cc(C(=O)O)c(=O)cc2-3)c1` [Example 56, (R)-6-(tert-butyl)-2-(2-hydroxy-5-methoxyphenyl)-10-oxo-5,6-dihydro-10H-pyrazolo[1,5-a]pyrido[2,2-c]pyrazine-12-carboxylic acid], for which the EC50 in series [1] was < 100 nM. In addition, the CC50 at 3 days in series [2] was > 25000 nM.

As for `Cc1ccc(-c2cnn3c2-c2cc(=O)c(C(=O)O)cn2[C@H](C(C)(C)C)C3)cc1` [Example 126, (R)-6-(tert-butyl)-10-oxo-1-(p-tolyl)-5,6-dihydro-10H-pyrazolo[1,5-a]pyrido[2,1-c]pyrazine-9-carboxylic acid], the EC50 in series [1] is < 100 nM. The CC50 at 3 days in series [2] was > 25000 nM.

`CC(C)(C)[C@@H]1Cn2nc(-c3cccc4c3sc3ccccc34)cc2-c2cc(=O)c(C(=O)O)cn21` [Example 70, (R)-6-(tert-butyl)-2-(dibenzo[b,d]thiophen-4-yl)-10-oxo-5,6-dihydro-10H-pyrazolo[1,5-a]pyrido[2,2-c]pyrazine-12-carboxylic acid] yielded an EC50 in series [1] of 200 to 1000 nM. For the same molecule, the CC50 at 3 days in series [2] was > 25000 nM.

`CC(C)(C)[C@@H]1Cn2nc(-c3ccc(F)nc3)cc2-c2cc(=O)c(C(=O)O)cn21` [Example 38, (R)-6-(tert-butyl)-2-(6-fluoropyridin-3-yl)-10-oxo-5,6-dihydro-10H-pyrazolo[1,5-a]pyrido[2,2-c]pyrazine-12-carboxylic acid]: the EC50 in series [1] was < 100 nM. Also, the CC50 at 3 days in series [2] is > 25000 nM.

In the case of `CC(C)(C)[C@@H]1Cn2nc(-c3ccccc3OC3CC3)cc2-c2cc(=O)c(C(=O)O)cn21` [Example 81, (R)-6-(tert-butyl)-2-(2-cyclopropoxyphenyl)-10-oxo-5,6-dihydro-10H-pyrazolo[1,5-a]pyrido[2,2-c]pyrazine-12-carboxylic acid], the EC50 in series [1] was < 100 nM. In addition, the CC50 at 3 days in series [2] was > 25000 nM.

Regarding `C[C@@H]1Cn2nc(-c3ccccc3F)c(-c3ccccc3F)c2-c2cc(=O)c(C(=O)O)cn21` [Example 206, (R)-1,2-bis(2-fluorophenyl)-6-methyl-10-oxo-5,6-dihydro-10H-pyrazolo[1,5-a]pyrido[2,1-c]pyrazine-9-carboxylic acid], the EC50 in series [1] is < 100 nM. In addition, in series [2], the CC50 at 3 days fell in the range of 10000 to 25000 nM.
